Measured values taken from patent publication US20260240863A1, “COMBINATION OF ROGINOLISIB AND HDAC INHIBITOR IN THE TREATMENT OF HAEMATOLOGICAL MALIGNANCY” (IONCTURA SA, priority 2023, published 2026).

Key:
DNMT = settings: more than that of azacytidine; cited from earlier work
Farage (DLBCL) cell line = assay: MTT antiproliferation combination assay, Chou-Talalay Combination Index, Farage; assay type: cell-based; settings: HDAC inhibitor in combination with Compound 1, 72 hours
Description: (§1) Cell lines from different haematological malignancies were exposed to increasing doses of Compound 1, to increasing doses of HDAC inhibitor, and to increasing doses of the combination of Compound 1 and HDAC inhibitor. Compound 1 and Vorinostat were used at a maximum concentration of 10 μM, following an eight fold dose response design based on 1:3 compound dilutions plus an untreated control. Belinostat was used at a maximum concentration of 10 μM, following an eight fold dose response design based on 1:4 compound dilutions plus an untreated control.
(§2) Cells were incubated for 72 hours at 37° C. and 5% CO2. The antiproliferative effect of single and combination treatments were determined by adding 20 μL MTT [3-(4,5-dimethylthiazolyl-2)-2,5-diphenyltetrazoliumbromide] reagent (Sigma Aldrich, Buchs, Switzerland) to each well and the plates were incubated at 37° C. for 4 hours, followed by adding 50 μL of sodium dodecyl sulfate (SDS) (250 µM SDS, 0.21% fuming HCl) lysis buffer. The lysed cells were kept overnight, and then the absorbance was read at 570 nm using the Cytation 3 instrument (BioTek, Winoosku, VT, USA). The effect of the combinations was determined according to the Chou-Talalay Combination Index (CI) (Chou 2008, Chou 2010) and calculated with the Synergy R package (Lee 2007). […]

JVM2 (MCL) cell line = assay: MTT antiproliferation combination assay, Chou-Talalay Combination Index, JVM2; assay type: cell-based; settings: HDAC inhibitor in combination with Compound 1, 72 hours
Description: as §1, §2

MEC1 (CLL) cell line = assay: MTT antiproliferation combination assay, Chou-Talalay Combination Index, MEC1; assay type: cell-based; settings: HDAC inhibitor in combination with Compound 1, 72 hours
Description: as §1, §2

[1] = clinical use of Vorinostat; cited from earlier work
TMD8 (DLBCL) cell line = assay: MTT antiproliferation combination assay, Chou-Talalay Combination Index, TMD8; assay type: cell-based; settings: HDAC inhibitor in combination with Compound 1, 72 hours
Description: as §1, §2

[2] = tested on: A20 (murine B-cell lymphoma) cell line; assay: MTT antiproliferation combination assay, Chou-Talalay Combination Index, A20; assay type: cell-based; settings: HDAC inhibitor in combination with Compound 1, 72 hours
Description: as §1, §2

Row | SMILES | inhibitory activity of DNMT relative to azacytidine (DNMT) [times] | Cl value (median) (Farage (DLBCL) cell line) | Cl value (median) (JVM2 (MCL) cell line) | Cl value (median) (MEC1 (CLL) cell line) | pulmonary embolism (thromboembolic, most common life-threatening event) [1] [%] | Cl value (median) (TMD8 (DLBCL) cell line) | Cl value (median) [2]
1 | Nc1ncn([C@H]2C[C@H](O)[C@@H](CO)O2)c(=O)n1 [Decitabine, 5-aza-2′-deoxycytidine] | 30 | – | – | – | – | – | –
2 | O=C(CCCCCCC(=O)Nc1ccccc1)NO [Vorinostat, N-Hydroxy-N′-phenyloctanediamide] | – | 0.69 | 0.71 | 0.83 | 4 | – | –
3 | O=C(/C=C/c1cccc(S(=O)(=O)Nc2ccccc2)c1)NO [Belinostat, (2E)-N-Hydroxy-3-[3-(phenylsulfamoyl)phenyl]prop-2-enamide] | – | 0.51 | 0.62 | 0.45 | – | 0.87 | 0.87
